For 27 compounds, IC50 and Ki results are on record in ChEMBL document CHEMBL1909046, “DrugMatrix in vitro pharmacology data”.

In one data set the target is Cannabinoid receptor 1 (Homo sapiens, UniProt P21554). It counts as cell membranes, Chem-1, Membrane. Further: in other assays of this panel Not Active means under 50% inhibition at 10 µM.
The next data set has as its target Melanocortin receptor 5 (Homo sapiens, UniProt P33032). It is filed as cell membranes, HEK293, Membrane. Further: in other assays of this panel Not Active means under 50% inhibition at 10 µM.
Data set [1] is described as follows: DRUGMATRIX: Phosphodiesterase PDE3 enzyme inhibition (substrate: [3H]cAMP + cAMP). It is filed as tissue-based, Homo sapiens. Particulars: platelet; Not Active = under 50% inhibition at 10 µM.
The target of data set [2] is 5-hydroxytryptamine receptor 1B (Rattus norvegicus, UniProt P28564). It is filed as cell membranes, Wistar, Cerebral cortex, Membrane. Further: in other assays of this panel Not Active means under 50% inhibition at 10 µM.
In data set [3] the target is 5-hydroxytryptamine receptor 2B (Homo sapiens, UniProt P41595). It is filed as cell membranes, CHO-K1, Membrane. Further: in other assays of this panel Not Active means under 50% inhibition at 10 µM.
In the next data set the target is Cytochrome P450 2C9 (Homo sapiens, UniProt P11712). Particulars: bti-tn-5b1-4. Further: in other assays of this panel Not Active means under 50% inhibition at 10 µM.
Chain of Cytochrome P450 2C9 (P11712 whole entry): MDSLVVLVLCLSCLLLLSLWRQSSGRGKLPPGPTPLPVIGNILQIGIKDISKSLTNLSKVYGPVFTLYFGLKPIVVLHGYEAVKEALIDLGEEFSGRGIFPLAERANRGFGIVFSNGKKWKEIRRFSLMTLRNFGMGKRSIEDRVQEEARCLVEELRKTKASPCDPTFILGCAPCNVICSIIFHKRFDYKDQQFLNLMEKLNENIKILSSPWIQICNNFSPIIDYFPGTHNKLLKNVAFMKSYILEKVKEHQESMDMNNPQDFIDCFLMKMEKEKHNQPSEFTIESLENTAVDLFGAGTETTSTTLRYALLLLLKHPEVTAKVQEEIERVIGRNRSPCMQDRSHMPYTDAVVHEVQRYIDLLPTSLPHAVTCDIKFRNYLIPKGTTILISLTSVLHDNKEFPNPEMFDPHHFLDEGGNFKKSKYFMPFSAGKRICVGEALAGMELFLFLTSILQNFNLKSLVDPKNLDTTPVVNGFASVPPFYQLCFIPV

Chain of 5-hydroxytryptamine receptor 1B (P28564 whole entry): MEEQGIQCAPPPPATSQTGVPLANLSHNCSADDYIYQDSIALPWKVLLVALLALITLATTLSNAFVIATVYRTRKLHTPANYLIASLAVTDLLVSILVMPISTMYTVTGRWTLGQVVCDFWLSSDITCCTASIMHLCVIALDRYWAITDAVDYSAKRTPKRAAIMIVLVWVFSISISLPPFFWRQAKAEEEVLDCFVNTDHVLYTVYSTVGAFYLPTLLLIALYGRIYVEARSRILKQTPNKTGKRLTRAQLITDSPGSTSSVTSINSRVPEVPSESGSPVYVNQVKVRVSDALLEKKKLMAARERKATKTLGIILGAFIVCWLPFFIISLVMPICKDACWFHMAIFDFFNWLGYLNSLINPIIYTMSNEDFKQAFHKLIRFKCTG
Chain of Cannabinoid receptor 1 (P21554 whole entry): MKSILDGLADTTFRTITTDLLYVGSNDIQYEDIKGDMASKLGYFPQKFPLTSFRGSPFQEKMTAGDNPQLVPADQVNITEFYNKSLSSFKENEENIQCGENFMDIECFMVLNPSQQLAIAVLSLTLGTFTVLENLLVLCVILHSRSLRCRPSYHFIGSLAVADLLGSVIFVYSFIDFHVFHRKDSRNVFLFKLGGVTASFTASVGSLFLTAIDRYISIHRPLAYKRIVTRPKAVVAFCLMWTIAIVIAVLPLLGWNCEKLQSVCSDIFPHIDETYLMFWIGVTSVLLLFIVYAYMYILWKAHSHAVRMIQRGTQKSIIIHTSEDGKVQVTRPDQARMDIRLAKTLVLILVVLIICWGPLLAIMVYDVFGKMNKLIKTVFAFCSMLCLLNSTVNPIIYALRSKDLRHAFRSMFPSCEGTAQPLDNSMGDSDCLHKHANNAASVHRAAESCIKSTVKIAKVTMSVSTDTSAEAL
Chain of 5-hydroxytryptamine receptor 2B (P41595 whole entry): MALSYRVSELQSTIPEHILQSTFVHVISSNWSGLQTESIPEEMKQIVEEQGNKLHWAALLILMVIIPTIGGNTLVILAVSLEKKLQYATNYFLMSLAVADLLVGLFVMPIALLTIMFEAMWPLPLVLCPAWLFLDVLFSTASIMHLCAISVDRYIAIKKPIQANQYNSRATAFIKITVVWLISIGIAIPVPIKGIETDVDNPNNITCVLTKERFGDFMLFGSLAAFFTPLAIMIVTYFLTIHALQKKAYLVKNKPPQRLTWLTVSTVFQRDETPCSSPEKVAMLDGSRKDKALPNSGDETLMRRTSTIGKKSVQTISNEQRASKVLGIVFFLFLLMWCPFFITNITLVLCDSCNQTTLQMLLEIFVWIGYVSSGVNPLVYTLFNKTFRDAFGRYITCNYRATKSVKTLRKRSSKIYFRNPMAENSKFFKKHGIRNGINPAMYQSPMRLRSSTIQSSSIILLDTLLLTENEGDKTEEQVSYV
Chain of Melanocortin receptor 5 (P33032 whole entry): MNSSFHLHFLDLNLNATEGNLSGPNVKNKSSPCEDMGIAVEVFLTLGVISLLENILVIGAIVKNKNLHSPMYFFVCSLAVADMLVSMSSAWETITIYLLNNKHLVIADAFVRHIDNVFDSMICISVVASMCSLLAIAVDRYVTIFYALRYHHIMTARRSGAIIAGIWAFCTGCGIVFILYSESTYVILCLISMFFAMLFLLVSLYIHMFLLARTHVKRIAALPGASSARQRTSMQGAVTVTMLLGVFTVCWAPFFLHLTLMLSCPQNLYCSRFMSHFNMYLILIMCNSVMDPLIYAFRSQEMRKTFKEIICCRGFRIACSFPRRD

Broadly, the IC50 is the concentration that inhibits the measured activity by half. The term Ki denotes the dissociation constant of the complex between target and ligand, obtained from inhibition or displacement. As for `COc1ccc(CCN(C)CCCC(C#N)(c2ccc(OC)c(OC)c2)C(C)C)cc1OC` (stereo not given), the IC50 result (at Cannabinoid receptor 1 (chem-1); against Melanocortin receptor 5 (hek293); in data set [1]; in data set [2]) was “Not Active” each time. Besides, the Ki entry in data set [1] was “Not Active”.

Turning to `CC(C)Cc1ccc([C@@H](C)C(=O)O)cc1` [(R)-IBUPROPHEN], the IC50 entry (on Cannabinoid receptor 1 (chem-1); against Melanocortin receptor 5 (hek293); in data set [1]; in data set [2]; in data set [3] (cho-k1); on Cytochrome P450 2C9) was “Not Active” each time. The Ki result (in data set [1]; on Cytochrome P450 2C9) was “Not Active” each time.

With `CC(C)NCC(O)c1ccc(O)c(O)c1` (stereo not given) [ISOPROTERENOL], the IC50 entry (against Cannabinoid receptor 1 (chem-1); against Melanocortin receptor 5 (hek293); in data set [1]; in data set [2]; in data set [3] (cho-k1); against Cytochrome P450 2C9) was “Not Active” throughout. Moreover, the Ki entry (in data set [1]; at Cytochrome P450 2C9) was “Not Active” throughout.

In the case of `NC(=O)N1C(=O)/C(=C(\O)c2cccs2)c2cc(Cl)ccc21` [TENIDAP], the IC50 result (against Cannabinoid receptor 1 (chem-1); against Melanocortin receptor 5 (hek293); in data set [1]; in data set [2]; in data set [3] (cho-k1)) was “Not Active” each time. Also, the Ki entry in data set [1] is on record as “Not Active”.

As to `NC1CCN(c2nc3c(cc2F)c(=O)c(C(=O)O)cn3-c2ccc(F)cc2F)C1` (stereo not given) [TOSUFLOXACIN], the IC50 entry (at Cannabinoid receptor 1 (chem-1); at Melanocortin receptor 5 (hek293); in data set [1]; in data set [2]; in data set [3] (cho-k1); on Cytochrome P450 2C9) was “Not Active” each time. The Ki result (in data set [1]; at Cytochrome P450 2C9) was “Not Active” throughout.

With `N#Cc1ccc(C(c2ccc(C#N)cc2)n2cncn2)cc1` [LETROZOLE], the IC50 entry (against Cannabinoid receptor 1 (chem-1); against Melanocortin receptor 5 (hek293); in data set [1]; in data set [2]; in data set [3] (cho-k1); on Cytochrome P450 2C9) was “Not Active” each time. In addition, the Ki entry (in data set [1]; on Cytochrome P450 2C9) was “Not Active” each time.

As for `O=C(Nc1ccc(Br)cc1)c1cc(Br)cc(Br)c1O` [TRIBROMSALAN], the half-inhibitory concentration (IC50) result (on Cannabinoid receptor 1 (chem-1); against Melanocortin receptor 5 (hek293); in data set [1]; in data set [2]; in data set [3] (cho-k1)) was “Not Active” throughout. Further, the Ki result in data set [1] is on record as “Not Active”.

As for `O=C1Nc2ccc(Cl)cc2C(c2ccccc2Cl)=NC1O` (stereo not given) [LORAZEPAM], the IC50 result (on Cannabinoid receptor 1 (chem-1); against Melanocortin receptor 5 (hek293); in data set [1]; in data set [2]; in data set [3] (cho-k1); against Cytochrome P450 2C9) was “Not Active” in each case. Further, the Ki result (in data set [1]; on Cytochrome P450 2C9) was “Not Active” throughout.

For `CC(C)Oc1ccc2c(=O)c(-c3ccccc3)coc2c1` [IPRIFLAVONE], the IC50 result (at Cannabinoid receptor 1 (chem-1); against Melanocortin receptor 5 (hek293); in data set [1]; in data set [2]; in data set [3] (cho-k1); against Cytochrome P450 2C9) was “Not Active” in each case. The Ki result (in data set [1]; at Cytochrome P450 2C9) was “Not Active” each time.

Consider `CNC1(c2ccccc2Cl)CCCCC1=O` (stereo not given) [KETAMINE], for which the half-inhibitory concentration (IC50) entry (against Cannabinoid receptor 1 (chem-1); on Melanocortin receptor 5 (hek293); in data set [1]; in data set [2]; in data set [3] (cho-k1); on Cytochrome P450 2C9) was “Not Active” in each case. Besides, the Ki result (in data set [1]; at Cytochrome P450 2C9) was “Not Active” each time.

For the compound `O=C(O)c1cn(-c2ccc(F)cc2)c2cc(N3CCNCC3)c(F)cc2c1=O` [SARAFLOXACIN], the IC50 result (on Cannabinoid receptor 1 (chem-1); against Melanocortin receptor 5 (hek293); in data set [1]; in data set [2]; in data set [3] (cho-k1); at Cytochrome P450 2C9) was “Not Active” throughout. Also, the Ki entry (in data set [1]; on Cytochrome P450 2C9) was “Not Active” in each case.

As for `CCN(CC)CCOc1ccc(/C(=C(/Cl)c2ccccc2)c2ccccc2)cc1` [ENCLOMIPHENE], the IC50 result (against Cannabinoid receptor 1 (chem-1); at Melanocortin receptor 5 (hek293); in data set [2]; at Cytochrome P450 2C9) was “Not Active” throughout. Also, the Ki result on Cytochrome P450 2C9 is “Not Active”.

SODIUM ORTHOVANAD: the IC50 entry (on Cannabinoid receptor 1 (chem-1); against Melanocortin receptor 5 (hek293); in data set [1]; in data set [2]; in data set [3] (cho-k1); at Cytochrome P450 2C9) was “Not Active” each time. Moreover, the Ki entry (on Cannabinoid receptor 1 (chem-1); at Melanocortin receptor 5 (hek293); in data set [1]; in data set [2]; in data set [3] (cho-k1); on Cytochrome P450 2C9) was “Not Active” in each case.

Consider `Cn1c(=O)c2nc[nH]c2n(C)c1=O.O` [THEOPHYLLINE], for which the IC50 result (on Cannabinoid receptor 1 (chem-1); on Melanocortin receptor 5 (hek293); in data set [1]; in data set [2]; in data set [3] (cho-k1)) was “Not Active” throughout. In addition, the Ki result in data set [1] is reported as “Not Active”.

Consider `CO[C@@H]1[C@@H](OC)[C@H](C)[C@@](O)(CC(=O)O)O[C@H]1[C@H](C)[C@H]1O[C@@]2(CC[C@@](C)([C@H]3CC[C@@](C)([C@@H]4O[C@@H]([C@H]5O[C@](C)(O)[C@H](C)C[C@@H]5C)C[C@@H]4O[C@@H]4C[C@H](OC)[C@@H](OC)[C@H](C)O4)O3)O2)C[C@H](O)[C@H]1C` [MADURAMICIN ACID], for which the concentration for half-maximal inhibition (IC50) result is “Not Active” on Cannabinoid receptor 1 (chem-1); “Not Active” on Melanocortin receptor 5 (hek293); “Not Active” in data set [1]; 0.00298 µM in data set [2] (read-out: IC50); 0.033 µM in data set [3] (read-out: IC50); “Not Active” against Cytochrome P450 2C9. The Ki result in data set [1] is “Not Active”; in data set [2] (read-out: Ki) it was 0.00135 µM; in data set [3] (read-out: Ki), 0.021 µM; at Cytochrome P450 2C9, “Not Active”.

As to `CN[C@H]1CC[C@@H](c2ccc(Cl)c(Cl)c2)c2ccccc21` [SERTRALINE], the IC50 result was “Not Active” against Cannabinoid receptor 1 (chem-1); 4.6 µM at Melanocortin receptor 5 (read-out: IC50); “Not Active” in data set [2]; 3.39 µM in data set [3] (read-out: IC50); “Not Active” on Cytochrome P450 2C9. For the same compound, the Ki is 4.31 µM on Melanocortin receptor 5 (read-out: Ki), 2.16 µM in data set [3] (read-out: Ki) and “Not Active” at Cytochrome P450 2C9.

As to `CCN(CC)CC(=O)Nc1c(C)cccc1C` [LIDOCAINE], the IC50 entry (against Cannabinoid receptor 1 (chem-1); against Melanocortin receptor 5 (hek293); in data set [1]; in data set [2]; in data set [3] (cho-k1)) was “Not Active” each time. Besides, the Ki result in data set [1] is given as “Not Active”.

As for `CN(C)CCOC(c1ccccc1)c1ccccc1` [DIPHENHYDRAMINE], the IC50 result (against Cannabinoid receptor 1 (chem-1); against Melanocortin receptor 5 (hek293); in data set [2]) was “Not Active” in each case.

As for `CN(C/C=C/C#CC(C)(C)C)Cc1cccc2ccccc12` [TERBINAFINE], the IC50 result (against Cannabinoid receptor 1 (chem-1); at Melanocortin receptor 5 (hek293); in data set [1]; in data set [2]; in data set [3] (cho-k1); against Cytochrome P450 2C9) was “Not Active” in each case. Moreover, the Ki result (in data set [1]; at Cytochrome P450 2C9) was “Not Active” in each case.

As to `CCCCNc1ccc(C(=O)OCCN(C)C)cc1` [TETRACAINE], the IC50 entry (at Cannabinoid receptor 1 (chem-1); at Melanocortin receptor 5 (hek293); in data set [1]; in data set [2]) was “Not Active” in each case. Also, the inhibitory constant (Ki) result in data set [1] and in data set [3] (cho-k1) was “Not Active” throughout.

Consider `CC[C@@H](C(=O)[C@@H](C)[C@@H](O)[C@H](C)[C@@H]1O[C@@H]([C@@H](CC)C(=O)O)CC[C@@H]1C)[C@H]1O[C@]2(C=C[C@@H](O)[C@]3(CC[C@@](C)([C@H]4CC[C@](O)(CC)[C@H](C)O4)O3)O2)[C@H](C)C[C@@H]1C` [SALINOMYCIN], for which the IC50 entry (against Cannabinoid receptor 1 (chem-1); against Melanocortin receptor 5 (hek293); in data set [1]; in data set [2]; in data set [3] (cho-k1); at Cytochrome P450 2C9) was “Not Active” each time. Also, the Ki entry (in data set [1]; on Cytochrome P450 2C9) was “Not Active” each time.

Consider `Cc1c(C)c2c(c(C)c1O)CCC(C)(CN1CCN(c3cc(N4CCCC4)nc(N4CCCC4)n3)CC1)O2` (stereo not given), for which the IC50 result against Cannabinoid receptor 1 (chem-1) is “Not Active”; at Melanocortin receptor 5 (hek293), “Not Active”; in data set [1], “Not Active”; in data set [2], “Not Active”; in data set [3] (read-out: IC50), 0.519 µM. Further, the Ki entry in data set [1] was “Not Active”; in data set [3] (read-out: Ki), 0.33 µM.

As to `Clc1ccccc1CN1CCc2sccc2C1` [TICLOPIDINE], the 50% inhibitory concentration (IC50) result (against Cannabinoid receptor 1 (chem-1); against Melanocortin receptor 5 (hek293); in data set [1]; in data set [2]; in data set [3] (cho-k1); on Cytochrome P450 2C9) was “Not Active” in each case. Besides, the Ki entry (in data set [1]; on Cytochrome P450 2C9) was “Not Active” each time.

Take `Fc1ccc(C(c2ccc(F)cc2)N2CCN(C/C=C/c3ccccc3)CC2)cc1` [FLUNARIZINE]: the IC50 at Cannabinoid receptor 1 (read-out: IC50) was 3.03 µM; on Melanocortin receptor 5 (hek293), “Not Active”; in data set [2], “Not Active”; on Cytochrome P450 2C9, “Not Active”. The Ki on Cannabinoid receptor 1 (read-out: Ki) was 2.39 µM; on Cytochrome P450 2C9, “Not Active”.

As to `CNCCC(Oc1ccc(C(F)(F)F)cc1)c1ccccc1` (stereo not given) [FLUOXETINE], the IC50 result (on Cannabinoid receptor 1 (chem-1); at Melanocortin receptor 5 (hek293); in data set [2]; in data set [3] (cho-k1); at Cytochrome P450 2C9) was “Not Active” throughout. The Ki result on Cytochrome P450 2C9 is “Not Active”.

For the compound `Cc1ccc(NC(=O)c2ccc(CN3CCN(C)CC3)cc2)cc1Nc1nccc(-c2cccnc2)n1` [IMATINIB], the IC50 result (against Cannabinoid receptor 1 (chem-1); against Melanocortin receptor 5 (hek293); in data set [2]; in data set [3] (cho-k1); at Cytochrome P450 2C9) was “Not Active” in each case. The inhibition constant Ki entry at Cytochrome P450 2C9 was “Not Active”.

Take `Clc1ccc(COC(Cn2ccnc2)c2ccc(Cl)cc2Cl)cc1` (stereo not given) [ECONAZOLE]: the concentration for half-maximal inhibition (IC50) turned out to be 39.5 µM at Melanocortin receptor 5 (read-out: IC50) and 22 µM in data set [2] (read-out: IC50). The Ki was 37.1 µM at Melanocortin receptor 5 (read-out: Ki) and 10 µM in data set [2] (read-out: Ki).
